Holding throughout (assay): Post-emergence herbicidal activity test (stem and leaf spray, pot culture)
What all share (type): in vivo
Holding throughout (settings): 3 weeks after spraying

The subject of one test is Trifoliumre pensL. The protocol: (1) Post-Emergence Stem and Leaf Spray Treatment: The weeds were cultivated in a 180 mm×140 mm plastic nutrient pot by a pot-culture method, placed in an enamel tray, and the plastic nutrient pots were filled with surface soil (⅘ of a depth) collected from a farmland and air-dried and sieved, and a soil humidity was controlled at 20% in the initial stage. Weed seeds with plump and uniform grains were selected, soaked in warm water at 25° C. for 6 h, and germinated in a biochemical incubator (dark) at 28° C. The freshly exposed weed seeds were evenly placed on the soil surface, and then covered with 0.5 cm to 1 cm of soil according to the size of the seeds. The weeds are cultivated in a controlled sunlight greenhouse at 20° C. to 30° C., under natural light, and a relative humidity of 57% to 72%. The soil was loam, including 1.63% of organic matters, with a pH value of 7, 84.3 mg/kg of alkaline nitrogen, 38.5 mg/kg of available phosphorus, and 82.1 mg/kg of available potassium. Each treatment was repeated 2 times, each treatment included 12 pots, and 20 weed seeds were sown in each pot. Pesticide was applied in the test for 1 time in total. When the weeds grew to 1.5- to 2-leaf stage, thinning was conducted, with 10 weeds in each pot, and 30 weeds were kept in each treatment. The cultivated weeds were placed on trays with an area of 0.1 m^2, and stems and leaves were sprayed with a sprayer. After applying a pesticide, the pesticide applied weeds were moved into a greenhouse for routine cultivation. 2 weeks after sowing, the test plants were treated at the 2- to 3-leaf stage: the compounds of the present disclosure for testing were dissolved in acetone separately, and added with Tween 80, an emulsifiable oil of 1.5 liters/ha methyl oleate was added as a synergist, and an obtained mixture was diluted with certain water to a certain concentration solution. The solution was sprayed onto the plants using a spray tower. After spraying, the weeds were cultivated in the greenhouse for 3 weeks, and the experimental effects on the weeds were counted. The effective concentrations of the compounds were 10 g/mu, 5 g/mu, and 2.5 g/mu, the experiment was repeated three times, and an average result was taken.

In a further test the test system is Setaria viridis. The protocol:
(§1) The weeds were cultivated in a 180 mm×140 mm plastic nutrient pot by a pot-culture method, placed in an enamel tray, and the plastic nutrient pots were filled with surface soil (⅘ of a depth) collected from a farmland and air-dried and sieved, and a soil humidity was controlled at 20% in the initial stage. Weed seeds with plump and uniform grains were selected, soaked in warm water at 25° C. for 6 h, and germinated in a biochemical incubator (dark) at 28° C. The freshly exposed weed seeds were evenly placed on the soil surface, and then covered with 0.5 cm to 1 cm of soil according to the size of the seeds. The weeds are cultivated in a controlled sunlight greenhouse at 20° C. to 30° C., under natural light, and a relative humidity of 57% to 72%. The soil was loam, including 1.63% of organic matters, with a pH value of 7, 84.3 mg/kg of alkaline nitrogen, 38.5 mg/kg of available phosphorus, and 82.1 mg/kg of available potassium.
(§2) Each treatment was repeated 2 times, each treatment included 12 pots, and 20 weed seeds were sown in each pot. Pesticide was applied in the test for 1 time in total. When the weeds grew to 1.5- to 2-leaf stage, thinning was conducted, with 10 weeds in each pot, and 30 weeds were kept in each treatment.
(§3) The cultivated weeds were placed on trays with an area of 0.1 m^2, and stems and leaves were sprayed with a sprayer. After applying a pesticide, the pesticide applied weeds were moved into a greenhouse for routine cultivation.
(§4) 2 weeks after sowing, the test plants were treated at the 2- to 3-leaf stage: the compounds of the present disclosure for testing were dissolved in acetone separately, and added with Tween 80, an emulsifiable oil of 1.5 liters/ha methyl oleate was added as a synergist, and an obtained mixture was diluted with certain water to a certain concentration solution. The solution was sprayed onto the plants using a spray tower. After spraying, the weeds were cultivated in the greenhouse for 3 weeks, and the experimental effects on the weeds were counted. The effective concentrations of the compounds were 10 g/mu, 5 g/mu, and 2.5 g/mu, the experiment was repeated three times, and an average result was taken.
(§5) The activity level criteria for plant destruction (i.e. growth control rate) are as follows: • Grade 5: the growth control rate is greater than or equal to 85%; • Grade 4: the growth control rate is greater than or equal to 60% and less than 85%; • Grade 3: the growth control rate is greater than or equal to 40% and less than 60%; • Grade 2: the growth control rate is greater than or equal to 20% and less than 40%; • Grade 1: the growth control rate is greater than or equal to 5% and less than 20%; and • Grade 0: the growth control rate is less than 5%.
(§6) The growth control rate is a fresh weight control rate.

The next test has as its system Abutilon theophrasti. The protocol: as §1, §2, §3, §4, §5, §6
A further test relates to Amaranthus retroflexus. The protocol: as §1, §2, §3, §4, §5, §6
For the next test, the system named is Echinochloa crusgalli. The protocol:
as §1, §2, §3, §4, §5, §6

Another test has as its system Portulaca oleracea. The protocol:
as §1, §2, §3, §4, §5, §6

For `O=C1C2=C(CCCC2)C(=O)N1c1cc(OCc2nc(-c3ccccc3Br)no2)c(Cl)cc1F` [Compound A4], the “Post-emergence herbicidal activity, Trifoliumre pensL. (grade)” value with Trifoliumre pensL. (dosage 2.5 g/mu) was 4 (Grade 4: the growth control rate is greater than or equal to 60% and less than 85%); with Trifoliumre pensL. (dosage 5 g/mu) it was 5 (Grade 5: the growth control rate is greater than or equal to 85%); in the test with Trifoliumre pensL. (dosage 10 g/mu), 5 (Grade 5: the growth control rate is greater than or equal to 85%). The “Post-emergence herbicidal activity, S. viridis (grade)” value is 2 (Grade 2: the growth control rate is greater than or equal to 20% and less than 40%) in the test on Setaria viridis (dosage 2.5 g/mu); 3 (Grade 3: the growth control rate is greater than or equal to 40% and less than 60%) in the test on Setaria viridis (dosage 5 g/mu); 4 (Grade 4: the growth control rate is greater than or equal to 60% and less than 85%) with Setaria viridis (dosage 10 g/mu). Moreover, the “Post-emergence herbicidal activity, A. theophrasti (grade)” value with Abutilon theophrasti (dosage 2.5 g/mu), in the test with Abutilon theophrasti (dosage 5 g/mu) and with Abutilon theophrasti (dosage 10 g/mu) was 5 (Grade 5: the growth control rate is greater than or equal to 85%) each time. In addition, the “Post-emergence herbicidal activity, A. retroflexus (grade)” value in the test with Amaranthus retroflexus (dosage 2.5 g/mu), in the test with Amaranthus retroflexus (dosage 5 g/mu) and in the test with Amaranthus retroflexus (dosage 10 g/mu) was 5 (Grade 5: the growth control rate is greater than or equal to 85%) in each case. In addition, the “Post-emergence herbicidal activity, E. crusgalli (grade)” value in the test on Echinochloa crusgalli (dosage 2.5 g/mu) was 1 (Grade 1: the growth control rate is greater than or equal to 5% and less than 20%); with Echinochloa crusgalli (dosage 5 g/mu), 2 (Grade 2: the growth control rate is greater than or equal to 20% and less than 40%); in the test on Echinochloa crusgalli (dosage 10 g/mu), 3 (Grade 3: the growth control rate is greater than or equal to 40% and less than 60%). The “Post-emergence herbicidal activity, P. oleracea (grade)” value is 4 (Grade 4: the growth control rate is greater than or equal to 60% and less than 85%) in the test on Portulaca oleracea (dosage 2.5 g/mu); 5 (Grade 5: the growth control rate is greater than or equal to 85%) in the test with Portulaca oleracea (dosage 5 g/mu); 5 (Grade 5: the growth control rate is greater than or equal to 85%) with Portulaca oleracea (dosage 10 g/mu).
As for `O=C1C2=C(CCCC2)C(=O)N1c1cc(OCc2nc(-c3ccc(Cl)cc3)no2)c(Cl)cc1F` [Compound A5], the “Post-emergence herbicidal activity, Trifoliumre pensL. (grade)” value with Trifoliumre pensL. (dosage 2.5 g/mu), with Trifoliumre pensL. (dosage 5 g/mu) and with Trifoliumre pensL. (dosage 10 g/mu) was 5 (Grade 5: the growth control rate is greater than or equal to 85%) throughout. For the same molecule, the “Post-emergence herbicidal activity, S. viridis (grade)” value was 2 (Grade 2: the growth control rate is greater than or equal to 20% and less than 40%) in the test on Setaria viridis (dosage 2.5 g/mu); 3 (Grade 3: the growth control rate is greater than or equal to 40% and less than 60%) in the test with Setaria viridis (dosage 5 g/mu); 4 (Grade 4: the growth control rate is greater than or equal to 60% and less than 85%) in the test on Setaria viridis (dosage 10 g/mu). Moreover, the “Post-emergence herbicidal activity, A. theophrasti (grade)” value in the test on Abutilon theophrasti (dosage 2.5 g/mu), with Abutilon theophrasti (dosage 5 g/mu) and with Abutilon theophrasti (dosage 10 g/mu) was 5 (Grade 5: the growth control rate is greater than or equal to 85%) each time. Moreover, the “Post-emergence herbicidal activity, A. retroflexus (grade)” value with Amaranthus retroflexus (dosage 2.5 g/mu), with Amaranthus retroflexus (dosage 5 g/mu) and in the test on Amaranthus retroflexus (dosage 10 g/mu) was 5 (Grade 5: the growth control rate is greater than or equal to 85%) each time. Also, the “Post-emergence herbicidal activity, E. crusgalli (grade)” value in the test on Echinochloa crusgalli (dosage 2.5 g/mu) is 1 (Grade 1: the growth control rate is greater than or equal to 5% and less than 20%); in the test with Echinochloa crusgalli (dosage 5 g/mu) it was 2 (Grade 2: the growth control rate is greater than or equal to 20% and less than 40%); in the test with Echinochloa crusgalli (dosage 10 g/mu), 3 (Grade 3: the growth control rate is greater than or equal to 40% and less than 60%). In addition, the “Post-emergence herbicidal activity, P. oleracea (grade)” value in the test on Portulaca oleracea (dosage 2.5 g/mu), in the test with Portulaca oleracea (dosage 5 g/mu) and in the test with Portulaca oleracea (dosage 10 g/mu) was 5 (Grade 5: the growth control rate is greater than or equal to 85%) throughout.

Values taken from patent US20240300932A1, “N-PHENYLIMINE DERIVATIVE AND PREPARATION METHOD AND USE THEREOF” (Guizhou University, priority 2023, published 2024).
